The text below walks through data of patent US10590130B2, “Chemical compounds” (AstraZeneca AB, priority 2016, dated 2020).

The first series in a line: log D (shake flask, octanol/aqueous buffer). The conditions noted are these: 1-octanol/aqueous buffer. The class given is physicochemical. From the text: Physical Properties log D
The lipophilicity of a drug is an important physical property which may influence many biological and metabolic properties of a compound, for example the absorption, distribution, metabolism, excretion and toxicity profiles of a compound. The distribution coefficient between 1-octanol and aqueous buffer, Log DO/W, at pH 7.4, is the most commonly used measurement of the lipophilicity of a compound. The current method for measurement of Log DO/W is based on the traditional shake flask technique, but with the modification of measuring compounds in mixtures of ten at a time using UPLC with quantitative mass spectrometry (MS) as a method to measure the relative octanol and aqueous concentrations. […] An additional QC sample Caffeine, with low Log D, are used and randomly placed in all runs. The method has been thoroughly validated against the previous shake flask methodologies.
Turning to `COC[C@](C)(F)CN1[C@H](c2ccc(OC3CN(CCCF)C3)cc2OC)c2ccc3[nH]ncc3c2C[C@H]1C` (single isomer, unassigned) [Example 13], the “LogD pH 7.4” value stood at 4.

Another series can be described thus: Human hepatocyte assay (metabolic stability). The class given is in vitro ADME. The following applies: human hepatocytes, in vitro intrinsic clearance. As to the method:
The metabolic stability of compounds in human hepatocytes was assessed using the following protocol: • 1. Prepare 10 mM stock solutions of compound and control compounds in appropriate solvent (DMSO). Place incubation medium (L-15 Medium) in a 37° C. water bath, and allow warming for at least 15 minutes prior to use. • 2. Add 80 μL of acetonitrile to each well of the 96-well deep well plate (quenching plate). • 3. In a new 96-well plate, dilute the 10 mM test compounds and the control compounds to 100 μM by combining 198 μL of acetonitrile and 2 μL of 10 mM stock. • 4. Remove a vial of cryopreserved (less than −150° C.) human hepatocytes (LiverPool™ 10 Donor Human hepatocytes obtained from Celsis IVT. Chicago, Ill. (Product No. S01205)) from storage, ensuring that vials remain at cryogenic temperatures until thawing process ensues. As quickly as possible, thaw the cells by placing the vial in a 37° C. water bath and gently shaking the vials. Vials should remain in water bath until all ice crystals have dissolved and are no longer visible. After thawing is complete, spray vial with 70% ethanol, transfer the vial to a bio-safety cabinet. • 5. Open the vial and pour the contents into the 50 mL conical tube containing thawing medium. Place the 50 mL conical tube into a centrifuge and spin at 100 g for 10 minutes. […] Using Cellometer® Vision, count cells and determine the viable cell density. Cells with poor viability (<80% viability) are not acceptable for use. […] Transfer 247.5 μL of hepatocytes into each well of a 96-well cell culture plate. Place the plate on Eppendorf Thermomixer Comfort plate shaker to allow the hepatocytes to warm for 10 minutes. • 8. Add 2.5 μL of 100 μM test compound or control compounds into an incubation well containing cells, mix to achieve a homogenous suspension at 0.5 min, which when achieved, will define the 0.5 min time point. At the 0.5 min time, transfer 20 μL of incubated mixture to wells in a “Quenching plate” followed by vortexing. • 9. Incubate the plate at 37° C. at 900 rpm on an Eppendorf Thermomixer Comfort plate shaker. […] Centrifuge the quenching plates for 20 minutes at 4,000 rpm. 4 different compounds are pooled into one cassette and used for LC/MS/MS analysis.
All calculations were carried out using Microsoft Excel. Peak areas were determined from extracted ion chromatograms. In vitro intrinsic clearance (in vitro Clint, in […]) of parent compound was determined by regression analysis of the Ln percent parent disappearance vs. time curve.
V=incubation volume (0.25 mL);
N=number of hepatocytes per well (0.25×10^6 cells).
As to `COCC(F)(F)CN1[C@H](c2ccc(NC3CN(CCCF)C3)cc2OC)c2ccc3[nH]ncc3c2C[C@H]1C` [Example 1, N-(4-((6S,8R)-7-(2,2-difluoro-3-methoxypropyl)-8-methyl-6,7,8,9-tetrahydro-3H-pyrazolo[4,3-f]isoquinolin-6-yl)-3-methoxyphenyl)-1-(3-fluoropropyl)azetidin-3-amine], the Clint is 11 μL/min/10^6 cells. The same measure, in the same setting: then `COCC(F)(F)CN1[C@H](c2ccc(NC3CN(CCCF)C3)cn2)c2ccc3[nH]ncc3c2C[C@H]1C` [Example 2, 6-((6S,8R)-7-(2,2-difluoro-3-methoxypropyl)-8-methyl-6,7,8,9-tetrahydro-3H-pyrazolo[4,3-f]isoquinolin-6-yl)-N-(1-(3-fluoropropyl)azetidin-3-yl)pyridin-3-amine], with 6 μL/min/10^6 cells; and `C[C@@H]1Cc2c(ccc3[nH]ncc23)[C@@H](c2ccc(NC3CN(CCCF)C3)cn2)N1CC1(F)CC1` [Example 3, 6-((6S,8R)-7-((l-fluorocyclopropyl)methyl)-8-methyl-6,7,8,9-tetrahydro-3H-pyrazolo[4,3-f]isoquinolin-6-yl)-N-(1-(3-fluoropropyl)azetidin-3-yl)pyridin-3-amine], with 5 μL/min/10^6 cells; and `COc1cc(NC2CN(CCCF)C2)ccc1[C@@H]1c2ccc3[nH]ncc3c2C[C@@H](C)N1CC1(F)CC1` [Example 6, N-(4-((6S,8R)-7-((l-fluorocyclopropyl)methyl)-8-methyl-6,7,8,9-tetrahydro-3H-pyrazolo[4,3-f]isoquinolin-6-yl)-3-methoxyphenyl)-1-(3-fluoropropyl)azetidin-3-amine], with 2 μL/min/10^6 cells. On to `C[C@@H]1Cc2c(ccc3[nH]ncc23)[C@@H](c2c(F)cc(NC3CN(CCCF)C3)cc2F)N1CC1(F)CC1` [Example 11, N-(3,5-difluoro-4-((6S,8R)-7-((1-fluorocyclopropyl)methyl)-8-methyl-6,7,8,9-tetrahydro-3H-pyrazolo[4,3-f]isoquinolin-6-yl)phenyl)-1-(3-fluoropropyl)azetidin-3-amine], for which the Clint was determined as 7 μL/min/10^6 cells.

As for `C[C@@H]1Cc2c(ccc3[nH]ncc23)[C@@H](c2ncc(NC3CN(CCCF)C3)cc2F)N1CC1(F)CC1` [Example 18, 5-fluoro-6-((6S,8R)-7-((1-fluorocyclopropyl)methyl)-8-methyl-6,7,8,9-tetrahydro-3H-pyrazolo[4,3-f]isoquinolin-6-yl)-N-(1-(3-fluoropropyl)azetidin-3-yl)pyridin-3-amine], the Clint worked out at 3 μL/min/10^6 cells.

The compound `COc1cc(NC2CN(CCCF)C2)ccc1[C@@H]1c2ccc3[nH]ncc3c2C[C@@H](C)N1CC(C)(F)F` [Example 19, N-(4-((6S,8R)-7-(2,2-difluoropropyl)-8-methyl-6,7,8,9-tetrahydro-3H-pyrazolo[4,3-f]isoquinolin-6-yl)-3-methoxyphenyl)-1-(3-fluoropropyl)azetidin-3-amine] showed a Clint of 5 μL/min/10^6 cells. Regarding `COc1cc(NC2CN(CCCF)C2)ccc1[C@@H]1c2ccc3[nH]ncc3c2C[C@@H](C)N1CC(F)F` [Example 21, N-(4-((6S,8R)-7-(2,2-difluoroethyl)-8-methyl-6,7,8,9-tetrahydro-3H-pyrazolo[4,3-f]isoquinolin-6-yl)-3-methoxyphenyl)-1-(3-fluoropropyl)azetidin-3-amine], the Clint is on record as 6 μL/min/10^6 cells. The same measure, in the same setting: then `C[C@@H]1Cc2c(ccc3[nH]ncc23)[C@@H](c2ccc(NC3CN(CCCF)C3)cn2)N1CC(F)F` [Example 25, 6-((6S,8R)-7-(2,2-difluoroethyl)-8-methyl-6,7,8,9-tetrahydro-3H-pyrazolo[4,3-f]isoquinolin-6-yl)-N-(1-(3-fluoropropyl)azetidin-3-yl)pyridin-3-amine], with 5 μL/min/10^6 cells. Regarding `COc1cc(NC2CN(CCCF)C2)ccc1[C@@H]1c2ccc3[nH]ncc3c2C[C@@H](C)N1CC(F)(F)F` [Example 28, 1-(3-fluoropropyl)-N-(3-methoxy-4-((6S,8R)-8-methyl-7-(2,2,2-trifluoroethyl)-6,7,8,9-tetrahydro-3H-pyrazolo[4,3-f]isoquinolin-6-yl)phenyl)azetidin-3-amine], the Clint was 5 μL/min/10^6 cells. On the same count and under the same terms, then `C[C@@H]1Cc2c(ccc3[nH]ncc23)[C@@H](c2ccc(NC3CN(CCCF)C3)cc2)N1CC(F)F` [Example 48, N-(4-((6R,8R)-7-(2,2-difluoroethyl)-8-methyl-6,7,8,9-tetrahydro-3H-pyrazolo[4,3-f]isoquinolin-6-yl)phenyl)-1-(3-fluoropropyl)azetidin-3-amine], with 4 μL/min/10^6 cells.
